From patent publication US9597407B2, “Targeted antimicrobial moieties” (C3 Jian, Inc., priority 2009, dated 2017)
“Also recorded” adds a separate entry of the source.

Key:
microorganisms = assay: Morphology, biofilm and growth disruption by peptides (Table 5); type: cell-based; set-up: key: A: Peptide aggregates; B: Less hyphal formation; Clumps; Diffuse clumps and small polyps; F: Diffuse growth; H: Thin; I: Growth inhibition; Microcolony formation; Rippled; Small polyps; Thick; W: Halo formation on top, microlonies on bottom
Text: In certain embodiments peptides that induce alterations in phenotype or other biological activities can also be used as antimicrobial effector moieties.

bacteria = assay: Binding of targeting peptides to microorganisms (Table 3); details: microorganism bound by the targeting peptide; binding in aqueous buffers chosen by peptide solubility, preferably 1x PBS

Row | Substance | Organism, effect (microorganisms; C. jeikeium) | Organism, effect (microorganisms; S. epidermidis) | Target(s) (bacteria) | Organism, effect (microorganisms; M. luteus) | further results
1 | PF-129 (MKLLARDPWVCAWNDIW; Peptide with targeting and/or antimicrobial activity) | C. jeikeium (R) | S. epidermidis (M) | S. epidermidis and MRSA and E. faecalis and C. jeikeium and C. jejuni |  | 
2 | PF-133 (GDPTAGQKPVECP; Peptide with targeting and/or antimicrobial activity) | C. jeikeium (R) |  | S. epidermidis; also recorded: C. jeikeium; also recorded: C. jejuni; also recorded: M. smegmatis |  | 
3 | PF-135 (PPARPARIPQTPTLHGASLFRQRS; Peptide with targeting and/or antimicrobial activity) | C. jeikeium (R) |  | S. epidermidis and M. luteus and E. coli and P. aeruginosa and MRSA and C. jeikeium and M. smegmatis |  | 
4 | PF-144 (RSGQPVGRPSRRAWLR; Peptide with targeting and/or antimicrobial activity) |  |  | S. epidermidis and M. luteus and E. coli and C. albicans and MRSA and S. pneumoniae and E. faecalis and C. jeikeium |  | Organism, effect (microorganisms; S. pneumoniae): S. pneumoniae (H)
5 | PF-149 (GKVSVLTRVPRSLGGAPANQ; Peptide with targeting and/or antimicrobial activity) |  |  | S. epidermidis and M. luteus and E. coli and MRSA and C. jeikeium |  | Organism, effect (microorganisms; MRSA): MRSA (H)
6 | PF-153 (GILARADCSQIA; Peptide with targeting and/or antimicrobial activity) | C. jeikeium (C) | S. epidermidis (M) | M. luteus and P. mirabilis and E. coli and MRSA |  | 
7 | PF-156 (LITAEQPATAPIAGK; Peptide with targeting and/or antimicrobial activity) |  |  | S. epidermidis; also recorded: C. jeikeium |  | Organism, effect (microorganisms; MRSA): MRSA (H)
8 | PF-164 (EEVSRALAGIGLGLGCRIG; Peptide with targeting and/or antimicrobial activity) | C. jeikeium (R) |  | S. epidermidis; also recorded: M. luteus; also recorded: E. coli; also recorded: C. jeikeium |  | 
9 | PF-171 (TQVTLCRTW; Peptide with targeting and/or antimicrobial activity) |  | S. epidermidis (R) | S. epidermidis; also recorded: E. coli; also recorded: P. aeruginosa; also recorded: S. pneumoniae | M. luteus (R) | Organism, effect (microorganisms; B. subtilis): B. subtilis (D); Organism, effect (microorganisms; C. jejuni): C. jejuni (R); Organism, effect (microorganisms; MRSA): MRSA (M); Organism, effect (microorganisms; S. pneumoniae): S. pneumoniae (D)
10 | PF-173 (AGRTAIVQGGG; Peptide with targeting and/or antimicrobial activity) | C. jeikeium (D) | S. epidermidis (A) | S. epidermidis; also recorded: M. luteus; also recorded: P. mirabilis; also recorded: E. coli; also recorded: P. aeruginosa; also recorded: C. albicans; also recorded: C. jeikeium; also recorded: C. jejuni |  | 
11 | PF-175 (RRRPAGQRPEKASQAMIAA; Peptide with targeting and/or antimicrobial activity) |  |  | S. epidermidis; also recorded: E. faecalis | M. luteus (S) | Organism, effect (microorganisms; B. subtilis): B. subtilis (D); Organism, effect (microorganisms; C. albicans): C. albicans (B); Organism, effect (microorganisms; C. jejuni): C. jejuni (M); Organism, effect (microorganisms; S. pneumoniae): S. pneumoniae (A)
12 | PF-176 (RLTSNQFLTRITPFVFAQH; Peptide with targeting and/or antimicrobial activity) | C. jeikeium (D) | S. epidermidis (C) | S. epidermidis and M. luteus and P. mirabilis and E. coli and C. albicans and MRSA and E. faecalis and C. jeikeium | M. luteus (C) | 
13 | PF-180 (SGLGDLGFSSEAK; Peptide with targeting and/or antimicrobial activity) |  | S. epidermidis (C) | S. epidermidis and M. luteus and P. aeruginosa and C. albicans and MRSA and E. faecalis and C. jejuni and M. smegmatis |  | 
14 | PF-186 (DADKNLSLERDRFAWRVAAP; Peptide with targeting and/or antimicrobial activity) | C. jeikeium (A) | S. epidermidis (C) | S. epidermidis and M. luteus and E. coli and P. aeruginosa and MRSA and C. jeikeium |  | 
15 | PF-188 (ARTFAGRLGTRYFGGLMRSTKA; Peptide with targeting and/or antimicrobial activity) | C. jeikeium (H) |  | S. epidermidis and M. luteus and E. coli and C. albicans and MRSA and E. faecalis |  | 
16 | PF-191 (QFCNFAWLFLASNNAQVSALA; Peptide with targeting and/or antimicrobial activity) | C. jeikeium (R) | S. epidermidis (A) | E. coli; also recorded: P. aeruginosa; also recorded: C. jejuni |  | Organism, effect (microorganisms; MRSA): MRSA (H)
17 | PF-192 (VEEDEAPPPHY; Peptide with targeting and/or antimicrobial activity) |  | S. epidermidis (D) | S. epidermidis; also recorded: M. luteus; also recorded: P. aeruginosa; also recorded: C. albicans; also recorded: E. faecalis; also recorded: C. jeikeium |  | 
18 | PF-204 (ALQKQDMNLPSVKNQLVFLKSTG; Peptide with targeting and/or antimicrobial activity) | C. jeikeium (D) | S. epidermidis (C) | S. epidermidis; also recorded: P. mirabilis; also recorded: E. coli; also recorded: P. aeruginosa; also recorded: C. albicans; also recorded: C. jejuni | M. luteus (C) | Organism, effect (microorganisms; P. aeruginosa): P. aeruginosa (H)
19 | PF-208 (DAYHCHLVRSPDAHDLSMRIGFV; Peptide with targeting and/or antimicrobial activity) | C. jeikeium (A) | S. epidermidis (D) | S. epidermidis and C. albicans and MRSA and S. pneumoniae and E. faecalis and C. jeikeium and C. jejuni |  | 
20 | PF-212 (NDSKASN; Peptide with targeting and/or antimicrobial activity) |  |  | M. luteus; also recorded: P. aeruginosa | M. luteus (M) | 
21 | PF-215 (ELKITNYNVNTVLYRYYKWGNDLCE; Peptide with targeting and/or antimicrobial activity) |  |  | S. epidermidis; also recorded: M. luteus; also recorded: P. aeruginosa; also recorded: A. baumannii | M. luteus (T) | 
22 | PF-224 (DYFYITLSQKNTF; Peptide with targeting and/or antimicrobial activity) |  |  | S. epidermidis; also recorded: P. aeruginosa; also recorded: A. baumannii | M. luteus (T) | 
23 | PF-233 (DANAMARTTIAIVYILALIALTISYSL; Peptide with targeting and/or antimicrobial activity) |  | S. epidermidis (C) | S. epidermidis; also recorded: M. luteus; also recorded: P. aeruginosa; also recorded: A. baumannii |  | 
24 | PF-234 (RTPYILRS; Peptide with targeting and/or antimicrobial activity) |  |  | S. epidermidis; also recorded: M. luteus | M. luteus (T) | 
25 | PF-235 (GIPFSKPHKRQVNYMKSDVLAYIEQNKMAHTA; Peptide with targeting and/or antimicrobial activity) |  |  | S. epidermidis; also recorded: M. luteus | M. luteus (T) | 
26 | PF-249 (INSRYKISF; Peptide with targeting and/or antimicrobial activity) |  |  | S. epidermidis; also recorded: M. luteus | M. luteus (R) | 
27 | PF-255 (DHKINESQHNPFRSDSNKQNVDFF; Peptide with targeting and/or antimicrobial activity) |  |  | P. aeruginosa | M. luteus (M) | 
28 | PF-270 (MYLTPYAWIAVGSIFAFSVTTIKIGDQNDEKQKSHKNDVHKR; Peptide with targeting and/or antimicrobial activity) |  |  | S. epidermidis; also recorded: M. luteus; also recorded: P. aeruginosa | M. luteus (H) | 
29 | PF-271 (AAQPQTTSP; Peptide with targeting and/or antimicrobial activity) |  |  | S. epidermidis; also recorded: M. luteus; also recorded: P. aeruginosa; also recorded: A. baumannii | M. luteus (T) | 
30 | PF-273 (LVGALLIFVALIYMVLKGNADKN; Peptide with targeting and/or antimicrobial activity) |  | S. epidermidis (C) | S. epidermidis; also recorded: M. luteus; also recorded: P. aeruginosa; also recorded: A. baumannii |  | 
